Measurements: patent EP0473993B1, “Novel peptide derivatives and their pharmaceutical use” (Japan Tobacco Inc., priority 1990, dated 1992)

What was measured:
ICR male mice [1] = assay: Anti-chlorpromazine action (locomotor stimulant action); format: in vivo; conditions: Mus musculus, 2 h; SC; mice given chlorpromazine HCl 5 mg/kg s.c. one hour before; estimated from regression line; read-out: Concentration of test compound necessary for inducing 3000 count of automatism quantity in 2 hours
Protocol: Anti-chlorpromazine action (Locomotor stimulant action)
ICR male mice weighing 35 - 40 g (four animals per group) were subcutaneously administered with chlorpromazine HCl at the dose of 5 mg/kg and immediately set in the automatic locomotor-measuring apparatus (AUTOMEX). One hour later, the test compound dissolved in saline was subcutaneously administered, and the locomotor activity was measured every 15 minutes for 120 minutes. The total locomotor activity during the period of 120 minutes was calculated and the regression line was estimated based on the method of least squares, from which the amount of the test compound necessary for inducing 3000 locomotor-count was estimated (Table 2).

ICR male mice [2] = assay: Anti-reserpine action (antagonistic action against hypothermia); format: in vivo; conditions: Mus musculus, 2 h; SC; mice given reserpine 5 mg/kg s.c. 3 or 3.5 hours before; estimated from regression line; read-out: Concentration of test compound necessary for raising body temperature by 1°C on the average for 120 minutes
Protocol: Anti-reserpine action (Antagonistic action against hypothermia)
ICR male mice weighing 35 - 40 g were subcutaneously administered with reserpine at the dose of 5 mg/kg. About 2 hours later, each of the mice was held by a mouse-holder, and a body temperature sensor was intrarectally inserted. Thereafter, the body temperature was automatically measured every 10 minutes. The test compound dissolved in saline was subcutaneously administered 3 or 3.5 hours after administration of reserpine. After the administration of the test compound, the body temperature was measured every 10 minutes over the period of 120 minutes. The area below the body temperature line during the period was calculated, from which the regression line was estimated based upon least square method, and estimated was the amount of the test compound necessary for raising the body temperature by 1°C on the average for 120 minutes from that just before the administration of the test compound (Table 1).

| Compound | ED (3000 locomotor counts) (ICR male mice [1]) | ED (1 C rise of body temperature) (ICR male mice [2]) |
| --- | --- | --- |
| CC(C)C[C@H](NC(=O)[C@H]1NC(=O)C[C@H]1C)C(=O)N1CCC[C@H]1C(N)=O [Compound 1A, N-(cis-3-Methylpyroglutamyl)-L-leucyl-L-prolinamide] | 2.63 mg/kg | 0.18 mg/kg |
| CSCC[C@H](NC(=O)[C@H]1NC(=O)C[C@H]1C)C(=O)N1CCC[C@H]1C(N)=O [Compound 2A, N-(cis-3-Methylpyroglutamyl)-L-methionyl-L-prolinamide] | 1.64 mg/kg | 0.48 mg/kg |
| CCC[C@H](NC(=O)[C@H]1NC(=O)C[C@H]1C)C(=O)N1CCC[C@H]1C(N)=O [Compound 3A, N-(cis-3-Methylpyroglutamyl)-L-norvalyl-L-prolinamide] | – | 0.91 mg/kg |
| CCCC[C@H](NC(=O)[C@H]1NC(=O)C[C@H]1C)C(=O)N1CCC[C@H]1C(N)=O [Compound 5A, N-(cis-3-Methylpyroglutamyl)-L-norleucyl-L-prolinamide] | 16.3 mg/kg | 0.33 mg/kg |
| NC(=O)[C@@H]1CCCN1C(=O)[C@H](Cc1c[nH]cn1)NC(=O)[C@@H]1CCC(=O)N1 [TRH, L-pyroglutamyl-L-histidyl-L-prolinamide, reference compound] | 6.82 mg/kg | – |
